SMILES strings stand for the structures.

As to `COc1cc(Cc2cnc(N)nc2N)c2c(c1OC)OC(C)CC2O` (stereo not drawn), the melting point was in the range of 201 to 203 °C.

`Fc1cccc(OC2CN(C3CCC(c4c[nH]c5ccccc45)CC3)C2)c1` (stereo not drawn) displayed a melting point of 114 to 117 °C.

`Oc1nc2cc(Cl)cc(Cl)c2c(O)c1O` registered a melting point of 270 to 273 °C.

In turn, `O=C1CCC(c2ccc(NC(=O)C3CC3)cc2)=NN1` showed a melting point of 272 to 273 °C.

For `c1ccc2c(c1)OC[C@H](CN1CCC(CNc3nc4cccnc4s3)CC1)O2`, the melting point amounted to 160 °C.

Compound `CC(=O)Nc1ccc(OCC(=O)NC2CCN(Cc3ccc(Cl)c(Cl)c3)CC2)cc1` showed a melting point of 177 to 178 °C.

Turning to `CCCCc1nn(C)c2c1CCc1c(C(N)=O)sc(Oc3ccc4c(c3)OCO4)c1-2`, the melting point was in the range of 161 to 162 °C.

`CC(=O)C1=C(O)C(=C(C)Nc2ccc(S)cc2)C(=O)OC1=O`: the melting point lay in the range of 207 to 210 °C.

For `Cc1cc(C)cc(Oc2cccc([N+](=O)[O-])n2)c1`, the melting point fell in the range of 94 to 95 °C.

`COc1cc2c(=O)oc(=O)[nH]c2c(OC)c1OC` yielded a melting point of 247 °C.

On to `CCOC(=O)Cc1ccc2c(c1)C(=O)C(NC(=O)OC)CC2` (stereo not drawn), for which the melting point was 95 to 97 °C.

Compound `CC(C)(CO)Nc1nc(-c2cccc(Br)c2)cs1` returned a melting point of 116 to 120 °C.

`CCOc1cnc(-c2ccc(O)cc2)nc1` displayed a melting point of 202 °C.

In the case of `CC(C)(C)OC(=O)N1CCC(Nc2ncc3c(n2)-c2ccccc2C(c2ccc(Cl)c(Cl)c2)C3)CC1` (stereo not drawn), the melting point lay in the range of 94 to 96 °C.

For `CC(=S)NC[C@H]1CN(c2ccc(N3CCC(n4ccnn4)CC3)c(F)c2)C(=O)O1`, the melting point is 171 to 172 °C.

Compound `CC(c1ccco1)N(O)C(N)=O` (stereo not drawn) gave a melting point of 143 to 144 °C.

The compound `CCc1cccc(C)c1NC(=O)N=C1NCCN1` returned a melting point of 185 to 187 °C.

Compound `CCOC(=O)c1cc2c(F)c(Cl)ccc2[nH]1` had a melting point of 143 to 145 °C.

In turn, `CCOC(=O)c1c(O)c2cnc(-c3ccccc3)nc2n(Cc2ccccc2)c1=O` displayed a melting point of 230 to 231 °C.

As to `CN(C)CCOc1ccc(C#N)cn1`, the melting point amounted to 58 °C.

In the case of `Cc1cc(Cl)c(C(=O)O)c(Cl)c1`, the melting point is 139 to 145 °C.

With `Cc1ccc(NC(=O)C(C)C)o1`, the melting point was determined as 78 °C.

Regarding `Oc1ccc(C2CCC(=CCC3OCCO3)CC2)cc1` (stereo not drawn), the melting point is 126 °C.

With `COc1ccc2[nH]cc(CC(C)(C)[N+](=O)[O-])c2c1`, the melting point is 83 to 85 °C.

As to `CCCCCCC/C=C/C(=O)NC`, the melting point lay in the range of 60 to 63 °C.

`CCCCN(C(=O)c1ccc(Cl)cc1)[C@@H]1CN(CC)C[C@H]1O` (relative stereo): the melting point is 96.5 to 98 °C.

Turning to `O=C(NCCCN1CCC(c2ccccn2)CC1)N1C(=O)OCC1c1ccc(F)c(F)c1` (stereo not drawn), the melting point was in the range of 142 to 144 °C.

Compound `COc1ccc(-c2cnc3[nH]cc(C(=O)NC4CCN(C)C4)c3n2)cc1OC` (stereo not drawn) registered a melting point of 193 to 194 °C.

As for `CCN(CC)C(=O)n1ccc(S(=O)(=O)c2cc(Cl)cc(Cl)c2)n1`, the melting point was 103 to 106 °C.

`C#Cc1ccc(C#C)cc1` yielded a melting point of 91 to 92 °C.

`CC(C)(CCCCC(=O)CCCCC1(C(=O)O)CCC1)C(=O)O`: the melting point fell in the range of 53 to 55 °C.

Consider `CCOC(=O)C1Cc2cc(-c3ccc(NC(C)=O)cc3)ccc2O1` (stereo not drawn), for which the melting point was in the range of 164 to 166 °C.

`COc1ccc(S(=O)(=O)C(C)(Cc2ccc(OCCCN3CCN(c4cccc(Cl)c4)CC3)cc2)C(=O)NO)cc1` (stereo not drawn): the melting point amounted to 122 °C.

Compound `CCCCCCc1nc(C(C)=O)c[nH]1` gave a melting point of 104 to 106 °C.

In turn, `CN(Cc1ccc(NC(=O)C2=Cc3cc(Br)ccc3S(=O)(=O)CC2)cc1)C1CCOCC1` gave a melting point of 232 to 235 °C.

The compound `O=c1c(Cl)nsnc1Oc1cccnc1` came in with a melting point of 134 to 136 °C.

Compound `COCc1ccc(C(=O)OC)cn1` yielded a melting point of 33 °C.

Compound `CCC(=O)c1cc(C2(c3cccc(-c4cncnc4)c3)N=C(N)N(C)C2=O)cs1` (stereo not drawn) came in with a melting point of 167 to 172 °C.

On to `O=C(c1ccccc1)N(CCCn1cncn1)C1=Nc2cccc3cccc1c23`, for which the melting point was 140 to 141 °C.

For the compound `CC(Oc1nn(-c2ccccc2)cc1-c1ccccc1)C(=O)O` (stereo not drawn), the melting point lay in the range of 175 to 178 °C.

Turning to `CCN(c1ccc(Br)cc1)c1nc(=O)c2cccnc2s1`, the melting point lay in the range of 166 to 167 °C.

`CCOC(=O)[C@@]1(F)[C@@H]2CC=C(C(=O)OCc3ccccc3)[C@@H]21` yielded a melting point of 90 to 91 °C.

In the case of `O=C(O)C(=O)c1ccc2c(c1)OCO2`, the melting point lay in the range of 144 to 146 °C.

As for `CC(C)C[C@@H]1N[C@@H](c2ccc(C#N)cc2)[C@H]2C(=O)N(Cc3ccccc3)C(=O)[C@H]21` (racemic), the melting point lay in the range of 152 to 153 °C.

Turning to `CNC(=C[N+](=O)[O-])N(C)Cc1ccc(Cl)nc1`, the melting point lay within 103 to 104 °C.

`COC1(c2cc(F)cc(Sc3ccc(C(C)=O)cn3)c2)CCOCC1` returned a melting point of 73 to 74 °C.

`Cc1ccc(C2(O)c3ccccc3C(=O)c3ccccc32)cc1` returned a melting point of 203 to 209 °C.

With `Cc1nnc(CNc2c(C)cccc2C)o1`, the melting point is 134 to 135 °C.

The compound `O=[N+]([O-])c1ccc(CN2CCc3ccccc32)cc1` showed a melting point of 95 to 97 °C.

On to `O=C(O)Cc1ccc(C(=O)c2cccc(C(F)(F)F)c2)s1`, for which the melting point was determined as 120 °C.

With `CCCCCCCCCCCCN1C(=O)C=CC1=O`, the melting point was found to be 56 °C.

The compound `CN1CCN(c2cc(Cl)cc3c2c(=O)n(Cc2ccccc2Cl)c(=O)n3Cc2ccccc2)CC1` returned a melting point of 87 to 92 °C.

As to `CCCN(CCC)Cc1csc(-c2ncn3c2[C@@H]2CCN2C(=O)c2c(Cl)cccc2-3)n1`, the melting point was 200 to 201 °C.

`COC(=O)C1=C(N)C(=O)NCC1` showed a melting point of 192 to 194 °C.

Turning to `CCCCn1c(N)c(N=O)c(=O)n(CC2CCCCC2)c1=O`, the melting point was in the range of 229 to 230 °C.

`CC(C)C[C@H](NC(=O)[C@@H](S)Cc1ccccc1)C(=O)O` gave a melting point of 67 to 71 °C.

The compound `COc1ccc(-n2nc(Sc3ccccc3)c(C)c(C#N)c2=O)cc1` registered a melting point of 179 to 180 °C.

Regarding `COc1ccc2cc(CC(=O)OCC(C)=O)ccc2c1`, the melting point was in the range of 122 to 124 °C.

Consider `COc1cc2cc(C(=O)O)[nH]c2cc1OCCCl`, for which the melting point was in the range of 187 to 189 °C.

`N#Cc1ccc(OCC(O)CN2C3CCC2CNC3)cc1` (stereo not drawn) showed a melting point of 125 to 128 °C.

`COC(=O)COC(=O)Cc1cc(Oc2ccc(C(F)(F)F)cc2Cl)ccc1[N+](=O)[O-]`: the melting point fell in the range of 79.2 to 80.1 °C.

In the case of `Nc1cc([N+](=O)[O-])c(N)cc1SCC(O)CO` (stereo not drawn), the melting point was determined as 164 °C.

The compound `COc1ccccc1Oc1c(Cl)nc(-c2cccc(OCc3ccccc3)c2)nc1NS(=O)(=O)c1ccc(C)cn1` returned a melting point of 176 to 180 °C.

For `O=C1C(c2ccc(O)cc2)=C(Br)c2c(O)cc(O)cc21`, the melting point lay within 160 to 162 °C.

`CSC(=NC#N)N1CCc2nc(NC(=N)N)sc2C1`: the melting point was 224 to 227 °C.

For the compound `CNC(=O)c1ccnc(NC(=O)N2CCC3(CC2)Cc2ccccc2C3)c1`, the melting point was in the range of 229 to 231 °C.

`N[C@@H](Cc1cccc(OCC(F)(F)F)c1)[C@H](O)c1ccc(F)cc1` (racemic) showed a melting point of 94 to 95 °C.

For the compound `CCCCCC1CCc2cc(C(N)=O)ccc2C1` (stereo not drawn), the melting point is 166 to 168 °C.

`CN1C(=O)SC(Cc2ccc(NC(=O)/C=C/c3cnn(C)c3-c3ccc(F)cc3)cc2)C1=O` (stereo not drawn) came in with a melting point of 228 to 229 °C.

The compound `CCCCc1ccc(CCCCC(N)(CO)CO)cc1` showed a melting point of 92 to 94 °C.

The compound `CCNC(=O)c1cc(N)ccc1Oc1cncc(Cl)c1` displayed a melting point of 126 to 128 °C.

In the case of `COc1cc(F)ccc1C(=O)Nc1cc(-c2c(-c3ccc(F)c(C)c3)nc3cccnn23)ccn1`, the melting point was in the range of 251 to 252 °C.

`COc1ccccc1-c1cn(N=Cc2ccccc2)c(N)n1` gave a melting point of 166 to 167 °C.

`COC(=O)n1c(=O)n(C(C)C)c2nc(=O)[nH]cc21` gave a melting point of 303 to 306 °C.

On to `O=C(NO)[C@H](CNS(=O)(=O)c1ccc(OCc2ccccc2)cc1)N1CCCC1`, for which the melting point was 186 °C.

With `O=C(N[C@H](CN1CCC(OC2c3ccccc3CCc3ccccc32)CC1)C(=O)O)OCc1ccccc1`, the melting point lay in the range of 128 to 130 °C.

Compound `O=C(O)c1c(O)cccc1-c1ccccc1` gave a melting point of 143 to 146 °C.

Turning to `CCOC(=O)c1cc2c(nc(C)n2C)c2c1CCC(c1ccccc1)O2` (stereo not drawn), the melting point is 172 to 173 °C.

Compound `CC(C)c1ccc(S(=O)(=O)n2c(Cc3ccc(C(=O)O)c(F)c3)cc3cc(Cl)ccc32)cc1` had a melting point of 196 °C.

Take `Cc1nn(-c2c(Cl)cc(C(F)(F)F)cc2Cl)cc1S(C)(=O)=O`: the melting point was 168 to 169 °C.

In the case of `Cc1noc(NC(=O)N2CCN(c3nccc(-c4cc(F)cc(F)c4)n3)CC2)c1C`, the melting point lay within 241 to 242 °C.

Compound `Cc1onc(NS(=O)(=O)c2ccc([N+](=O)[O-])cc2)c1Br` registered a melting point of 161 to 163 °C.

For `CC(=O)c1cc(NC(=O)NCCCC(C)CNC(=O)Nc2cc(C(C)=O)cc(C(C)=O)c2)cc(C(C)=O)c1` (stereo not drawn), the melting point was found to be 128 °C.

Compound `O=C(O)c1cn(C2CSC2)c2cc(F)c(F)cc2c1=O` came in with a melting point of 251 to 256 °C.

`O=C(O)CSCCCCCCNS(=O)(=O)c1ccc(Cl)cc1` gave a melting point of 104 to 105 °C.

`CCOC(=O)C(=O)Nc1c([N+](=O)[O-])sc2c(F)cccc12` yielded a melting point of 148 to 151 °C.

Regarding `CC(=O)Nc1nc(C(Cl)(Cl)Cl)ns1`, the melting point stood at 193 °C.

Consider `C=Cc1cc(C(=O)OC)c(NC(C)=O)cc1C(F)(F)F`, for which the melting point was 79 to 81 °C.

As for `COCC1CN(c2ccc(C3CCNCC3)cc2)C(=O)O1` (racemic), the melting point was 161 to 163 °C.

With `Cc1cccc(COc2cccc(OCc3cnc4ccccc4n3)c2)c1C(=O)O`, the melting point fell in the range of 57 to 60 °C.

Regarding `Cc1ccnc2c(Oc3ccccc3N)cccc12`, the melting point was 160 to 161 °C.

In turn, `Cc1ccc(-n2nc3c4cc(/C=C/C(=O)OCc5ccccc5)ccc4[nH]c(=O)n3c2=O)cc1` gave a melting point of 242 °C.

`N#Cc1ccc(Nc2cc(Cc3c(Cl)cccc3Cl)nc(NCCCN3CCCC3=O)n2)cc1` showed a melting point of 104 to 114 °C.

The term melting point denotes the temperature of the solid-liquid transition.

For the origin of these results see a melting point compilation (Tetko et al.; mined from patent text by program, amines drawn as free bases though some values may be those of a salt).
